# The NIST ThermoML archive (doi:10.1016/j.tca.2010.11.011)
# Numbers after ± are expanded uncertainties.
# How the values were obtained:
# [1] = DTA; for Normal melting temperature: Crystal; for Triple point temperature: Crystal 2
# [2] = Molar enthalpy of transition or fusion; details: DSC
Normal melting temperature [1],Molar enthalpy of transition or fusion ([2]; Crystal),Triple point temperature [1],Molar enthalpy of transition or fusion ([2]; Crystal 2),Structure (SMILES)
153.00 ± 4 °C,38 ± 1 kJ/mol,,,"O=C(O)CCCCC(=O)O [1,6-hexanedioic acid]"
132.00 ± 4 °C,46.1 ± 1.2 kJ/mol,,,"O=C(O)CCCCCCCCC(=O)O [1,10-decanedioic acid]"
,,458.15 ± 1 K,38.8 ± 1.1 kJ/mol,"CC(CO)(CO)C(=O)O [2,2-bis(hydroxymethyl)propanoic acid]"
,,405.15 ± 1 K,34.5 ± 0.97 kJ/mol,"NC(CO)(CO)CO [2-amino-2-(hydroxymethyl)-1,3-propanediol]"
135.00 ± 8 °C,27.3 ± 0.81 kJ/mol,,,"O=C(O)/C=C\C(=O)O [cis-1,4-butenedioic acid]"
142.00 ± 1 °C,33 ± 0.97 kJ/mol,,,"COC(=O)c1ccc(C(=O)OC)cc1 [dimethyl 1,4-benzenedicarboxylate]"
131.00 ± 1 °C,23.6 ± 0.74 kJ/mol,,,"O=C1OC(=O)c2ccccc21 [isobenzofuran-1,3-dione]"
